From the CheMixHub ionic liquid set
± gives the uncertainty stated by the source.

Assay: xn = mol fraction of the nth substance listed

CC[n+]1ccn(C)c1.N#C[N-]C#N + O
Conditions	electrical conductivity [S/m]	viscosity [mPa·s]
288.15 K, 100 kPa, x2 = 0	–	20 ± 1.2
288.15 K, 100 kPa, x2 = 0.1016	–	17.49 ± 0.96
288.15 K, 100 kPa, x2 = 0.2014	–	15.14 ± 0.77
288.15 K, 100 kPa, x2 = 0.2999	–	13.02 ± 0.61
288.15 K, 100 kPa, x2 = 0.4015	–	11.08 ± 0.45
288.15 K, 100 kPa, x2 = 0.5106	–	9.24 ± 0.32
288.15 K, 100 kPa, x2 = 0.5934	–	7.86 ± 0.24
288.15 K, 100 kPa, x2 = 0.7465	–	5.45 ± 0.13
288.15 K, 100 kPa, x2 = 0.7974	–	4.58 ± 0.1
288.15 K, 100 kPa, x2 = 0.9004	–	2.76 ± 0.04
288.15 K, 100 kPa, x2 = 0.9498	–	1.93 ± 0.03
293.15 K, 100 kPa, x2 = 0	–	16.9 ± 1
293.15 K, 100 kPa, x2 = 0.1016	–	14.89 ± 0.81
293.15 K, 100 kPa, x2 = 0.2014	–	12.98 ± 0.66
293.15 K, 100 kPa, x2 = 0.2999	–	11.23 ± 0.52
293.15 K, 100 kPa, x2 = 0.4015	–	9.59 ± 0.39
293.15 K, 100 kPa, x2 = 0.5106	–	8 ± 0.28
293.15 K, 100 kPa, x2 = 0.5934	–	6.83 ± 0.21
293.15 K, 100 kPa, x2 = 0.7465	–	4.74 ± 0.11
293.15 K, 100 kPa, x2 = 0.7974	–	3.99 ± 0.09
293.15 K, 100 kPa, x2 = 0.9004	–	2.41 ± 0.04
293.15 K, 100 kPa, x2 = 0.9498	–	1.69 ± 0.02
293.2 K, 101 kPa, x2 = 0.6	4.47 ± 0.1	–
293.2 K, 101 kPa, x2 = 0.8	5.69 ± 0.13	–
298.15 K, 100 kPa, x2 = 0	–	14.54 ± 0.88
298.15 K, 100 kPa, x2 = 0.1016	–	12.86 ± 0.7
298.15 K, 100 kPa, x2 = 0.2014	–	11.23 ± 0.57
298.15 K, 100 kPa, x2 = 0.2999	–	9.77 ± 0.46
298.15 K, 100 kPa, x2 = 0.4015	–	8.37 ± 0.34
298.15 K, 100 kPa, x2 = 0.5106	–	7.01 ± 0.24
298.15 K, 100 kPa, x2 = 0.5934	–	5.99 ± 0.19
298.15 K, 100 kPa, x2 = 0.7465	–	4.16 ± 0.1
298.15 K, 100 kPa, x2 = 0.7974	–	3.5 ± 0.07
298.15 K, 100 kPa, x2 = 0.9004	–	2.13 ± 0.03
298.15 K, 100 kPa, x2 = 0.9498	–	1.5 ± 0.02
298.15 K, 101 kPa, x2 = 0	–	14.9 ± 0.62
298.15 K, 101 kPa, x2 = 0.2248	–	11.24 ± 0.46
298.15 K, 101 kPa, x2 = 0.3042	–	10.14 ± 0.41
298.15 K, 101 kPa, x2 = 0.4308	–	8.39 ± 0.34
298.15 K, 101 kPa, x2 = 0.7944	–	3.61 ± 0.15
298.15 K, 101 kPa, x2 = 0.8803	–	2.46 ± 0.1
303.15 K, 100 kPa, x2 = 0	–	12.63 ± 0.77
303.15 K, 100 kPa, x2 = 0.1016	–	11.21 ± 0.61
303.15 K, 100 kPa, x2 = 0.2014	–	9.84 ± 0.5
303.15 K, 100 kPa, x2 = 0.2999	–	8.59 ± 0.4
303.15 K, 100 kPa, x2 = 0.4015	–	7.38 ± 0.3
303.15 K, 100 kPa, x2 = 0.5106	–	6.19 ± 0.22
303.15 K, 100 kPa, x2 = 0.5934	–	5.29 ± 0.16
303.15 K, 100 kPa, x2 = 0.7465	–	3.67 ± 0.09
303.15 K, 100 kPa, x2 = 0.7974	–	3.09 ± 0.07
303.15 K, 100 kPa, x2 = 0.9004	–	1.89 ± 0.03
303.15 K, 100 kPa, x2 = 0.9498	–	1.34 ± 0.02
308.15 K, 100 kPa, x2 = 0	–	11.05 ± 0.67
308.15 K, 100 kPa, x2 = 0.1016	–	9.86 ± 0.54
308.15 K, 100 kPa, x2 = 0.2014	–	8.69 ± 0.44
308.15 K, 100 kPa, x2 = 0.2999	–	7.61 ± 0.36
308.15 K, 100 kPa, x2 = 0.4015	–	6.55 ± 0.27
308.15 K, 100 kPa, x2 = 0.5106	–	5.5 ± 0.19
308.15 K, 100 kPa, x2 = 0.5934	–	4.71 ± 0.15
308.15 K, 100 kPa, x2 = 0.7465	–	3.27 ± 0.08
308.15 K, 100 kPa, x2 = 0.7974	–	2.76 ± 0.06
308.15 K, 100 kPa, x2 = 0.9004	–	1.7 ± 0.03
308.15 K, 100 kPa, x2 = 0.9498	–	1.2 ± 0.02
308.2 K, 101 kPa, x2 = 0.2	3.89 ± 0.08	–
308.2 K, 101 kPa, x2 = 0.6	6.36 ± 0.14	–
313.15 K, 100 kPa, x2 = 0	–	9.76 ± 0.59
313.15 K, 100 kPa, x2 = 0.1016	–	8.74 ± 0.48
313.15 K, 100 kPa, x2 = 0.2014	–	7.73 ± 0.39
313.15 K, 100 kPa, x2 = 0.2999	–	6.79 ± 0.32
313.15 K, 100 kPa, x2 = 0.4015	–	5.86 ± 0.24
313.15 K, 100 kPa, x2 = 0.5106	–	4.93 ± 0.17
313.15 K, 100 kPa, x2 = 0.5934	–	4.23 ± 0.13
313.15 K, 100 kPa, x2 = 0.7465	–	2.93 ± 0.07
313.15 K, 100 kPa, x2 = 0.7974	–	2.48 ± 0.05
313.15 K, 100 kPa, x2 = 0.9004	–	1.53 ± 0.02
313.15 K, 100 kPa, x2 = 0.9498	–	1.09 ± 0.02
313.15 K, 101 kPa, x2 = 0.2248	–	7.79 ± 0.32
313.15 K, 101 kPa, x2 = 0.8803	–	1.73 ± 0.07
313.15 K, 101 kPa, x2 = 0.953	–	1.08 ± 0.04
313.2 K, 101 kPa, x2 = 0.2	4.32 ± 0.09	–
313.2 K, 101 kPa, x2 = 0.8	8.83 ± 0.19	–
318.15 K, 100 kPa, x2 = 0	–	8.69 ± 0.53
318.15 K, 100 kPa, x2 = 0.1016	–	7.79 ± 0.43
318.15 K, 100 kPa, x2 = 0.2014	–	6.92 ± 0.35
318.15 K, 100 kPa, x2 = 0.2999	–	6.1 ± 0.28
318.15 K, 100 kPa, x2 = 0.4015	–	5.27 ± 0.21
318.15 K, 100 kPa, x2 = 0.5106	–	4.45 ± 0.16
318.15 K, 100 kPa, x2 = 0.5934	–	3.81 ± 0.12
318.15 K, 100 kPa, x2 = 0.7465	–	2.64 ± 0.06
318.15 K, 100 kPa, x2 = 0.7974	–	2.24 ± 0.05
318.15 K, 100 kPa, x2 = 0.9004	–	1.39 ± 0.02
318.15 K, 100 kPa, x2 = 0.9498	–	0.99 ± 0.01
318.2 K, 101 kPa, x2 = 0.2	4.77 ± 0.1	–
328.15 K, 101 kPa, x2 = 0.7944	–	1.9 ± 0.08
328.2 K, 101 kPa, x2 = 0.2	5.74 ± 0.12	–
338.2 K, 101 kPa, x2 = 0.4	8.22 ± 0.17	–
338.2 K, 101 kPa, x2 = 0.6	10.6 ± 0.22	–
343.15 K, 101 kPa, x2 = 0	–	5.48 ± 0.23
